{"source": "ChEMBL document CHEMBL1201862", "about": "“PubChem BioAssay data set” (2004)", "key": {"[1]": {"assay": "reduction of Shn3 3'UTR-driven luciferase in osteoblasts – cell-based, Clone20 osteoblasts, firefly luciferase, cherry-picked, dose response (AID 624132)", "type": "functional"}, "[2]": {"assay": "loss of viability in HepG2 cells – cell-based, CellTiter-Glo, cherry-picked, cytotoxicity control for Shn3 inhibitor project, dose response (AID 624134)", "type": "functional"}, "[3]": {"assay": "non-specific 3'UTR reporter inhibition in Clone20-Shn3RL – cell-based, Renilla luciferase, cherry-picked, counter-screen for Shn3 inhibitor project, dose response (AID 624133)", "type": "functional"}, "[4]": {"assay": "viability of PTEN-deleted HCT116 cells – cell-based, HCT116 PTEN knockout, dose response (AID 1047);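 also: HCT116 colon tumor cells with PTEN knocked out; cells exposed to compound for 60 hours before readout; potency for loss of cell viability measured by luminescence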", "type": "functional"}, "[5]": {"assay": "viability of HCT116 lacking mutant beta-catenin – cell-based, human colon tumor, dose response (AID 1045);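 also: HCT116 colon tumor cells with beta catenin knocked out; cells exposed to compound for 60 hours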", "type": "functional"}, "[6]": {"assay": "Luminescence Cell-Based Dose Retest to Confirm Inhibitors of Cancer Stem Cells. [Related pubchem assays (depositor defined):AID2717, AID2721]", "type": "functional", "settings": "Homo sapiens"}, "[7]": {"target": "T1, Carboxy-terminal domain RNA polymerase II polypeptide A small phosphatase 1 (Homo sapiens, UniProt Q9GZU7)", "T1 sequence (Q9GZU7 whole entry)": "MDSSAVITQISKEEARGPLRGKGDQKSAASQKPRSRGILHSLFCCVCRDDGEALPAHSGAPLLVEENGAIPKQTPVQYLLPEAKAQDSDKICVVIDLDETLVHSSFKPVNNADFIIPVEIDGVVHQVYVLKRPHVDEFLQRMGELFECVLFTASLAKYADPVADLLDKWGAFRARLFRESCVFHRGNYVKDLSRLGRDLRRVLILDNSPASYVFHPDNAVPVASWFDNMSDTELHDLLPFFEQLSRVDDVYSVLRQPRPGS", "assay": "CTDSP1 inhibitors, concentration-response, biochemical, absorbance readout, ultra-high-throughput screen actives (AID 540297)", "type": "functional"}, "[8]": {"target": "T2, Sentrin-specific protease 8 (Homo sapiens, UniProt Q96LD8)", "T2 sequence (Q96LD8 whole entry)": "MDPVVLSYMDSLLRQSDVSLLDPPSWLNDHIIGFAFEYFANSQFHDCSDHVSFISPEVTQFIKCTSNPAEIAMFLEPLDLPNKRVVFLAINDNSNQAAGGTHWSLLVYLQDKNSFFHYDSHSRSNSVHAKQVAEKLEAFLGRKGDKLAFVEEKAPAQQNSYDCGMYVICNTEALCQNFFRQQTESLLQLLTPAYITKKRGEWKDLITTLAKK", "type": "functional"}, "[9]": {"target": "T2, Sentrin-specific protease 8", "type": "functional", "remark": "listed apart in the source"}, "[10]": {"assay": "Trypanosoma cruzi growth suppression in host cells – NIH3T3 host cells, beta-gal luminescence, confirmation (AID 2044);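 also: luminescent beta-galactosidase reporter signal from transgenic T. cruzi replicating inside host cells; inhibitors lower the luminescence signal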", "type": "functional, cell-based"}, "[11]": {"assay": "NIH3T3 cell viability loss – ATP luminescence, mouse fibroblasts, counter-screen, dose response (AID 2010);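 also: cells exposed to compound for about 90 hours before reading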", "type": "functional, cell-based"}, "[12]": {"target": "T3, Microphthalmia-associated transcription factor (Homo sapiens, UniProt O75030)", "T3 sequence (O75030 whole entry)": "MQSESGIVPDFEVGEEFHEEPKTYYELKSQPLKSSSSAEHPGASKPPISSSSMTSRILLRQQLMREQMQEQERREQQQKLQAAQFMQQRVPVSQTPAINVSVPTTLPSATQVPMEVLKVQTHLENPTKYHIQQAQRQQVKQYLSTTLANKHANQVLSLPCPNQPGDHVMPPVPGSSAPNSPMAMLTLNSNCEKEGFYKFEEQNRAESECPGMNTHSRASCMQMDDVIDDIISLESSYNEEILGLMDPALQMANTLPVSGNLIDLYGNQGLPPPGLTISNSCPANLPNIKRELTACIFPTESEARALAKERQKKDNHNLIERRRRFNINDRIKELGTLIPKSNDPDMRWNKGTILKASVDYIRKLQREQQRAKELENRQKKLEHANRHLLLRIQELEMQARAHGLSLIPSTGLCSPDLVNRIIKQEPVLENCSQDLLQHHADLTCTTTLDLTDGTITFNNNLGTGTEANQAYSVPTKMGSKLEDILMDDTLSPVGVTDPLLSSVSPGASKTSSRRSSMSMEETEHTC", "assay": "reducers of TRPM1 reporter luminescence, concentration series – cell-based, SK-MEL-5, cherry-picked, set 3, MITF inhibitor project, dose response (AID 493073)", "type": "functional"}, "[13]": {"assay": "HIV-1 AD8 envelope cell-cell fusion blockers – cherry-pick, dose response (AID 652062);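 also: luciferase signal from cell-cell fusion driven by HIV-1 clade B AD8 Env; potency is for inhibitors of fusion seen as a drop in luminescence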", "type": "functional, cell-based"}, "[14]": {"assay": "microbe, parasite or virus in culture", "type": "functional", "settings": "Mycobacterium tuberculosis"}, "INS1": {"tested_on": "INS1", "assay": "INS-1E survival protection against cytokine death – cell-based, luminescence, retest, dose response (AID 449756);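 also: cell death triggered by IL-1 beta plus TNF-alpha plus IFN-gamma mixture; protective hits raise ATP signal compared with cytokine alone wells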", "type": "functional", "settings": "Rattus norvegicus"}, "Large T antigen": {"target": "Large T antigen (Simian virus 40, UniProt P03070)", "sequence (P03070 whole entry)": "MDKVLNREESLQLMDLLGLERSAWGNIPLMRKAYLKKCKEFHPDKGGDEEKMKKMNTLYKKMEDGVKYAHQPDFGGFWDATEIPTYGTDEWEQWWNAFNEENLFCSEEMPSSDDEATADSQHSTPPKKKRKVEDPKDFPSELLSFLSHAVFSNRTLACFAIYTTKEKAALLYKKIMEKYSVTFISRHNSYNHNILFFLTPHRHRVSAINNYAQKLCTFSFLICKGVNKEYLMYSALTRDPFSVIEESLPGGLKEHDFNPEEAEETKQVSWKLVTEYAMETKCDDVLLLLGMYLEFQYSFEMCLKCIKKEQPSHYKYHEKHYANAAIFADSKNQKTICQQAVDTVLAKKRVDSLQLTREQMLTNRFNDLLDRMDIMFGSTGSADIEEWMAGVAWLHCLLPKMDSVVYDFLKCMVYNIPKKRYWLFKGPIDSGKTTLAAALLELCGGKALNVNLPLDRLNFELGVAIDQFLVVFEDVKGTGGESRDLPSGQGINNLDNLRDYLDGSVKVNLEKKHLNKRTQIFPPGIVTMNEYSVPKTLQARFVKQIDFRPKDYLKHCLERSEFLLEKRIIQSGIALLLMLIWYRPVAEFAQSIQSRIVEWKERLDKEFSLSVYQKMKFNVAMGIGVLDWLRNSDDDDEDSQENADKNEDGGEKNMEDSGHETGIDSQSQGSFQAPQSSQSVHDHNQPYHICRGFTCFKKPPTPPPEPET", "type": "functional, Betapolyomavirus macacae"}, "[15]": {"target": "T4, Rac GTPase-activating protein 1 (Homo sapiens, UniProt Q9H0H5)", "T4 sequence (Q9H0H5 whole entry)": "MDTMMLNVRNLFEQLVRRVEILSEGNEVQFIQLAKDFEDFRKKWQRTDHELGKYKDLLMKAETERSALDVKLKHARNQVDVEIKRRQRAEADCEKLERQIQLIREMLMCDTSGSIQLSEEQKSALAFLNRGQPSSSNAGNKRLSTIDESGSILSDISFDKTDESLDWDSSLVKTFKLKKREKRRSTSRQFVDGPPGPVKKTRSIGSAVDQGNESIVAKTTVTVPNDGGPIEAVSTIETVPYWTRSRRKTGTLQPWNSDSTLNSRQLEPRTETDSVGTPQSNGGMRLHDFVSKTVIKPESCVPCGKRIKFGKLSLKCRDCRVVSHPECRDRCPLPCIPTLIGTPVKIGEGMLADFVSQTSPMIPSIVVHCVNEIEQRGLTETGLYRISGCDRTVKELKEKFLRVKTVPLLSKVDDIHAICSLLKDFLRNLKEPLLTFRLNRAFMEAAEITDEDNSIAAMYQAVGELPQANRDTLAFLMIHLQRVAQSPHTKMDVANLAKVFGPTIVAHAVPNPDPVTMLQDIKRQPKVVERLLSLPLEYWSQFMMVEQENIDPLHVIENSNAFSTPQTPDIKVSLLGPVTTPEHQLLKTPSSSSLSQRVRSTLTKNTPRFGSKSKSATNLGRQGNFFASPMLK", "assay": "blockers of MgcRacGAP-driven Rac1 GTP hydrolysis – biochemical, ADP Hunter fluorescence, primary and confirmatory, confirmation (AID 624330)", "type": "functional"}}, "note": "Calls of active or inactive are those of the source.", "data": [{"smiles": "Cn1nc(C(C)(C)C)cc1C(=O)N1CCCCC1c1cc(C(=O)Nc2ccc(F)c(Cl)c2)no1", "note": "(configuration not stated)", "values": [{"measurement": "AC50", "setting": "[1]", "result": "3.04 µM (active)"}, {"measurement": "AC50", "setting": "[2]", "result": "5.09 µM (active)"}, {"measurement": "AC50", "setting": "[3]", "result": "5.06 µM (active)"}]}, {"smiles": "COc1ccc(C2c3ccc4ccccc4c3Oc3ncn(Cc4ccco4)c(=N)c32)cc1OC", "note": "(configuration not stated)", "values": [{"measurement": "EC50", "setting": "[4]", "result": "7.09 µM (active)"}, {"measurement": "EC50", "setting": "[5]", "result": "8.96 µM (active)"}, {"measurement": "AC50", "setting": "[6]", "result": "3.94 µM (active)"}]}, {"smiles": "COc1ccc(/C=N/NC(=O)c2cccc(NC(=O)c3ccc(Cl)cc3)c2)c(OC)c1", "values": [{"measurement": "IC50", "setting": "[7]", "result": "6.27 µM (active)"}]}, {"smiles": "Cc1ccc(C(=O)N2C(=S)C(c3ccc(F)cc3)=NC23CCN(C)CC3)cc1", "values": [{"measurement": "IC50", "setting": "[8]", "result": "> 100 µM (inactive)"}, {"measurement": "IC50", "setting": "[9]", "result": "15 µM (active)"}]}, {"smiles": "Cc1ccc(C(=O)OCC(=O)c2ccc(CC(=O)N3CCOCC3)s2)cc1C", "values": [{"measurement": "IC50", "setting": "[7]", "result": "5.01 µM (active)"}]}, {"smiles": "O=C(CNC(=O)c1ccccc1)N/N=C/c1ccc([N+](=O)[O-])s1", "values": [{"measurement": "EC50", "setting": "[10]", "result": "0.285 µM (active)"}, {"measurement": "EC50", "setting": "[11]", "result": "12.7 µM (active)"}, {"measurement": "AC50", "setting": "[12]", "result": "5.34 µM (active)"}]}, {"smiles": "COc1ccccc1N=C(N)Nc1nc(O)cc(CSc2ccc(C)cc2)n1", "values": [{"measurement": "AC50", "setting": "[1]", "result": "2.95 µM (active)"}, {"measurement": "AC50", "setting": "[2]", "result": "59.8 µM (active)"}, {"measurement": "AC50", "setting": "[3]", "result": "12.4 µM (active)"}]}, {"smiles": "CC1CC(C)CN(C(=O)/C=C/c2ccc([N+](=O)[O-])s2)C1", "note": "(configuration not stated)", "values": [{"measurement": "AC50", "setting": "[12]", "result": "11.9 µM (active)"}]}, {"smiles": "NC(=S)NNc1cccc2cccnc12", "values": [{"measurement": "IC50", "setting": "[8]", "result": "7.91 µM (active)"}, {"measurement": "IC50", "setting": "[9]", "result": "6 µM (active)"}]}, {"smiles": "Nc1ccn([C@@H]2O[C@H](C(=O)NCc3ccc4c(c3)OCO4)[C@@H](O)[C@H]2O)c(=O)n1", "values": [{"measurement": "AC50", "setting": "[13]", "result": "0.723 µM (active)"}]}, {"smiles": "COc1ccc(Nc2nc(N)nc(CN3CCC(Cc4ccccc4)CC3)n2)cc1", "values": [{"measurement": "EC50", "setting": "[4]", "result": "17.7 µM (active)"}, {"measurement": "EC50", "setting": "[5]", "result": "23.5 µM (active)"}]}, {"smiles": "COc1ccccc1N(CC(=O)NCc1ccco1)S(=O)(=O)c1ccc(C)cc1", "values": [{"measurement": "IC50", "setting": "[7]", "result": "5.17 µM (active)"}]}, {"smiles": "Cc1ccc(C#CC[N+]2(CC#Cc3ccc(C)cc3)CCCCC2)cc1", "values": [{"measurement": "EC50", "setting": "[10]", "result": "0.344 µM (active)"}, {"measurement": "CC50", "setting": "[14]", "result": "> 40 µM (active)"}, {"measurement": "EC50", "setting": "[11]", "result": "> 60 µM (inconclusive)"}, {"measurement": "AC50", "setting": "[12]", "result": "3.95 µM (active)"}, {"measurement": "AC50", "setting": "INS1", "result": "2.04 µM (active)"}]}, {"smiles": "COC(=O)CCC(=O)OC1(C)C(=O)C=C2C=C3CCCN3C=C2C1=O", "note": "(configuration not stated)", "values": [{"measurement": "IC50", "setting": "[8]", "result": "6.06 µM (active)"}, {"measurement": "IC50", "setting": "[9]", "result": "7.67 µM (active)"}]}, {"smiles": "COc1cc(/C=N/NC(=O)Cn2nnc3ccccc32)ccc1O", "values": [{"measurement": "IC50", "setting": "Large T antigen", "result": "6.59 µM (active)"}, {"measurement": "IC50", "setting": "[15]", "result": "24.3 µM (active)"}]}]}
